Tests used:
[1] = biological target: T1, proteases (Hepatitis C virus genotype 1b, UniProt P26663, R1181K); experiment: biochemical; details: serine protease NS3 (a.a. 3-181) from Hepatitis C virus genotype 1b (mutant R155K); reference at 100 nM
T1 construct: BPS Biosciences (contract assay)

[2] = biological target: T2, proteases (Hepatitis C virus genotype 1a, UniProt P27958, D1194V); experiment: biochemical; details: serine protease NS3 (a.a. 3-181) from Hepatitis C virus genotype 1a (mutant D168 V); reference at 100 nM
T2 construct: BPS Biosciences (contract assay)

[3] = biological target: T3, proteases (Hepatitis C virus genotype 2a, UniProt Q99IB8); experiment: biochemical; details: serine protease NS3 (a.a. 3-181) from Hepatitis C virus genotype 2a; reference at 100 nM
T3 construct: BPS Biosciences (contract assay)

[4] = biological target: alpha 1A (h) (Homo sapiens, UniProt P35348); details: read-out: Ki Ref, reference compound (positive control)
[5] = tested on: Sarc4809 PDX tumors; experiment: Efficacy study sarcoma Sarc4809 PDX model; details: throughout the study
[6] = tested on: HEK-FAP tumors; experiment: Efficacy study HEK-FAP tumors; details: throughout the study
[7] = biological target: KV channel; details: read-out: Ki Ref, reference compound (positive control)

Question: With `CC(C)(C)OC(=O)N[C@H]1CCCCC/C=C\[C@@H]2C[C@@]2(C(=O)NS(=O)(=O)C2CC2)NC(=O)[C@@H]2C[C@@H](OC(=O)N3Cc4cccc(F)c4C3)CN2C1=O` [Denoprevir] as the compound, how does the “Percentage inhibition (%) Reference” value [1] read?
Answer: The value was 90%.

Question: And the “Percentage inhibition (%) Reference” value [2]?
Answer: Its value is 94%.

Question: What about the “Percentage inhibition (%) Reference” value [3] of the same compound?
Answer: The value was 98%.

Question: How did the Ki [4] turn out when `COc1cccc(OC)c1OCCNCC1COc2ccccc2O1` (stereo not shown) [WB 4101] was run?
Answer: The Ki was 0.24 nM.

Question: How did the “treatment-related body weight loss (BWL)” value [5] turn out when `CCCCCC(=O)N[C@H]1CSCc2cc(CSCCNC(=O)CN3CCN(CC(=O)O)CCN(CC(=O)O)CCN(CC(=O)O)CC3)cc(c2)CSC[C@@H](C(=O)O)NC(=O)[C@H](Cc2ccccc2)NC(=O)[C@H](CCC(N)=O)NC(=O)[C@H]([C@@H](C)O)NC(=O)[C@@H]2CCCN2C(=O)[C@@H]2CCCN2C1=O` [^177Lu-3BP-3554, metal not drawn] was run?
Answer: Its value is “No treatment-related body weight loss”.

Question: What about the “treatment-related body weight loss” value [6] of the same compound?
Answer: Its value is “No treatment-related body weight loss”.

Question: alpha-dendrotoxin was tested. Which Ki [7] did it give?
Answer: The Ki was 0.097 nM.

Reference: US20220315554A1, “COMPOUNDS COMPRISING A […] LIGAND AND USE THEREOF” (priority 2019, published 2022)
